# Assays:
# Assay in all cases: relative viability (nuclei count vs DMSO), 5 days (fraction); higher = more cells survive
# CUDC-101 + Bortezomib = compound: C#Cc1cccc(Nc2ncnc3cc(OC)c(OCCCCCCC(=O)NO)cc23)c1 [CUDC-101] + CC(C)C[C@H](NC(=O)[C@H](Cc1ccccc1)NC(=O)c1cnccn1)B(O)O [Bortezomib] (partner 0.002 µM)
# Summary of the method: (§1)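 Each reported value is a median over duplicate plates. It expresses relative viability: treated-well nuclei count divided by vehicle-well nuclei count. Lung cancer cell lines in 1536-well plates were dosed by pin tool a day after seeding, alone with one drug or with a fixed anchor-drug dose plus five library-drug doses (not always all listed) in √10 steps, and nuclei were counted after 5 days.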
# CUDC-101 + Vorinostat = compound: C#Cc1cccc(Nc2ncnc3cc(OC)c(OCCCCCCC(=O)NO)cc23)c1 [CUDC-101] + O=C(CCCCCCC(=O)Nc1ccccc1)NO [Vorinostat] (partner 1 µM)
# Summary of the method: as §1
# [1] = compound: C1=CC=C2C(=C1)N=C(S2)C(C#N)C3=NC(=NC=C3)NCCC4=CN=CC=C4 + CC(C)C[C@H](NC(=O)[C@H](Cc1ccccc1)NC(=O)c1cnccn1)B(O)O [Bortezomib] (partner 0.002 µM)
# Summary of the method: as §1
# [2] = compound: C1=CC=C2C(=C1)N=C(S2)C(C#N)C3=NC(=NC=C3)NCCC4=CN=CC=C4 + CS(=O)(=O)N1CCN(Cc2cc3nc(-c4cccc5[nH]ncc45)nc(N4CCOCC4)c3s2)CC1 [Pictilisib] (partner 1 µM)
# Summary of the method: as §1
cell line,measurement,setting,value
SK-LU-1,relative viability,CUDC-101 + Bortezomib; first compound 0.01 µM,1.55
same,relative viability,CUDC-101 + Bortezomib; first compound 0.03162 µM,1.03
same,relative viability,CUDC-101 + Bortezomib; first compound 0.1 µM,1.48
same,relative viability,CUDC-101 + Bortezomib; first compound 0.3162 µM,0.829
same,relative viability,CUDC-101 + Bortezomib; first compound 1 µM,0.976
same,relative viability,CUDC-101 + Vorinostat; first compound 0.01 µM,0.784
same,relative viability,CUDC-101 + Vorinostat; first compound 0.03162 µM,0.884
same,relative viability,CUDC-101 + Vorinostat; first compound 0.1 µM,0.843
same,relative viability,CUDC-101 + Vorinostat; first compound 0.3162 µM,0.829
same,relative viability,CUDC-101 + Vorinostat; first compound 1 µM,0.567
same,relative viability,[1]; first compound 0.005 µM,0.871
same,relative viability,[1]; first compound 0.05 µM,0.998
same,relative viability,[1]; first compound 0.1581 µM,1.42
same,relative viability,[1]; first compound 0.5 µM,1.23
same,relative viability,[2]; first compound 0.01581 µM,0.643
same,relative viability,[2]; first compound 0.05 µM,0.6
same,relative viability,[2]; first compound 0.1581 µM,0.651
same,relative viability,[2]; first compound 0.5 µM,0.552
LCLC-97TM1,relative viability,CUDC-101 + Bortezomib; first compound 0.01 µM,0.629
same,relative viability,CUDC-101 + Bortezomib; first compound 0.03162 µM,0.308
same,relative viability,CUDC-101 + Bortezomib; first compound 0.1 µM,0.527
same,relative viability,CUDC-101 + Bortezomib; first compound 0.3162 µM,0.546
same,relative viability,CUDC-101 + Bortezomib; first compound 1 µM,0.28
same,relative viability,CUDC-101 + Vorinostat; first compound 0.01 µM,0.815
same,relative viability,CUDC-101 + Vorinostat; first compound 0.03162 µM,0.778
same,relative viability,CUDC-101 + Vorinostat; first compound 0.1 µM,0.663
same,relative viability,CUDC-101 + Vorinostat; first compound 0.3162 µM,0.56
same,relative viability,CUDC-101 + Vorinostat; first compound 1 µM,0.195
same,relative viability,[1]; first compound 0.01581 µM,0.356
same,relative viability,[1]; first compound 0.05 µM,0.627
same,relative viability,[1]; first compound 0.1581 µM,0.754
same,relative viability,[1]; first compound 0.5 µM,0.291
same,relative viability,[2]; first compound 0.005 µM,0.215
same,relative viability,[2]; first compound 0.01581 µM,0.179
same,relative viability,[2]; first compound 0.05 µM,0.156
same,relative viability,[2]; first compound 0.1581 µM,0.181
same,relative viability,[2]; first compound 0.5 µM,0.236
NCI-H1915,relative viability,CUDC-101 + Bortezomib; first compound 0.01 µM,1.01
same,relative viability,CUDC-101 + Bortezomib; first compound 0.03162 µM,1.01
same,relative viability,CUDC-101 + Bortezomib; first compound 0.1 µM,0.982
same,relative viability,CUDC-101 + Bortezomib; first compound 0.3162 µM,0.936
same,relative viability,CUDC-101 + Bortezomib; first compound 1 µM,0.836
same,relative viability,CUDC-101 + Vorinostat; first compound 0.01 µM,0.527
same,relative viability,CUDC-101 + Vorinostat; first compound 0.03162 µM,0.511
same,relative viability,CUDC-101 + Vorinostat; first compound 0.1 µM,0.481
same,relative viability,CUDC-101 + Vorinostat; first compound 0.3162 µM,0.358
same,relative viability,CUDC-101 + Vorinostat; first compound 1 µM,0.374
same,relative viability,[1]; first compound 0.005 µM,0.552
same,relative viability,[1]; first compound 0.01581 µM,1.05
same,relative viability,[1]; first compound 0.05 µM,0.964
same,relative viability,[1]; first compound 0.1581 µM,1.19
same,relative viability,[1]; first compound 0.5 µM,0.647
same,relative viability,[2]; first compound 0.005 µM,0.933
same,relative viability,[2]; first compound 0.01581 µM,0.929
same,relative viability,[2]; first compound 0.05 µM,0.923
same,relative viability,[2]; first compound 0.1581 µM,1.1
same,relative viability,[2]; first compound 0.5 µM,0.879
NCI-H358,relative viability,CUDC-101 + Vorinostat; first compound 0.01 µM,0.697
same,relative viability,CUDC-101 + Vorinostat; first compound 0.03162 µM,0.733
same,relative viability,CUDC-101 + Vorinostat; first compound 0.1 µM,0.695
same,relative viability,CUDC-101 + Vorinostat; first compound 0.3162 µM,0.447
same,relative viability,CUDC-101 + Vorinostat; first compound 1 µM,0.128
same,relative viability,[2]; first compound 0.005 µM,0.347
same,relative viability,[2]; first compound 0.01581 µM,0.295
same,relative viability,[2]; first compound 0.05 µM,0.319
same,relative viability,[2]; first compound 0.1581 µM,0.371
same,relative viability,[2]; first compound 0.5 µM,0.342
LK-2,relative viability,CUDC-101 + Vorinostat; first compound 0.01 µM,0.37
same,relative viability,CUDC-101 + Vorinostat; first compound 0.03162 µM,0.407
same,relative viability,CUDC-101 + Vorinostat; first compound 0.1 µM,0.228
same,relative viability,CUDC-101 + Vorinostat; first compound 0.3162 µM,0.23
same,relative viability,CUDC-101 + Vorinostat; first compound 1 µM,0.158
same,relative viability,[2]; first compound 0.05 µM,0.531
same,relative viability,[2]; first compound 0.1581 µM,0.597
same,relative viability,[2]; first compound 0.5 µM,0.685
EPLC-272H,relative viability,CUDC-101 + Bortezomib; first compound 0.01 µM,0.729
same,relative viability,CUDC-101 + Bortezomib; first compound 0.03162 µM,1
same,relative viability,CUDC-101 + Bortezomib; first compound 0.1 µM,0.882
same,relative viability,CUDC-101 + Bortezomib; first compound 0.3162 µM,0.627
same,relative viability,CUDC-101 + Bortezomib; first compound 1 µM,0.384
same,relative viability,CUDC-101 + Vorinostat; first compound 0.01 µM,0.345
same,relative viability,CUDC-101 + Vorinostat; first compound 0.03162 µM,0.38
same,relative viability,CUDC-101 + Vorinostat; first compound 0.1 µM,0.464
same,relative viability,CUDC-101 + Vorinostat; first compound 0.3162 µM,0.229
same,relative viability,CUDC-101 + Vorinostat; first compound 1 µM,0.118
same,relative viability,[1]; first compound 0.005 µM,0.772
same,relative viability,[1]; first compound 0.01581 µM,0.777
same,relative viability,[1]; first compound 0.05 µM,0.958
same,relative viability,[1]; first compound 0.1581 µM,1.03
same,relative viability,[1]; first compound 0.5 µM,0.738
same,relative viability,[2]; first compound 0.005 µM,0.271
same,relative viability,[2]; first compound 0.01581 µM,0.277
same,relative viability,[2]; first compound 0.05 µM,0.288
same,relative viability,[2]; first compound 0.1581 µM,0.352
same,relative viability,[2]; first compound 0.5 µM,0.267
A-427,relative viability,CUDC-101 + Bortezomib; first compound 0.01 µM,0.936
same,relative viability,CUDC-101 + Bortezomib; first compound 0.03162 µM,1.01
same,relative viability,CUDC-101 + Bortezomib; first compound 0.1 µM,0.925
same,relative viability,CUDC-101 + Bortezomib; first compound 0.3162 µM,0.985
same,relative viability,CUDC-101 + Bortezomib; first compound 1 µM,0.878
same,relative viability,CUDC-101 + Vorinostat; first compound 0.01 µM,0.862
same,relative viability,CUDC-101 + Vorinostat; first compound 0.03162 µM,0.81
same,relative viability,CUDC-101 + Vorinostat; first compound 0.1 µM,0.854
same,relative viability,CUDC-101 + Vorinostat; first compound 0.3162 µM,0.817
same,relative viability,CUDC-101 + Vorinostat; first compound 1 µM,0.433
same,relative viability,[1]; first compound 0.005 µM,0.934
same,relative viability,[1]; first compound 0.01581 µM,1.07
same,relative viability,[1]; first compound 0.05 µM,0.968
same,relative viability,[1]; first compound 0.1581 µM,1.02
same,relative viability,[1]; first compound 0.5 µM,0.974
same,relative viability,[2]; first compound 0.005 µM,0.723
same,relative viability,[2]; first compound 0.01581 µM,0.664
same,relative viability,[2]; first compound 0.05 µM,0.726
same,relative viability,[2]; first compound 0.1581 µM,0.844
same,relative viability,[2]; first compound 0.5 µM,0.878
NCI-H1755,relative viability,CUDC-101 + Bortezomib; first compound 0.01 µM,0.985
same,relative viability,CUDC-101 + Bortezomib; first compound 0.03162 µM,1.06
same,relative viability,CUDC-101 + Bortezomib; first compound 0.1 µM,0.88
same,relative viability,CUDC-101 + Bortezomib; first compound 0.3162 µM,0.933
same,relative viability,CUDC-101 + Bortezomib; first compound 1 µM,0.79
same,relative viability,CUDC-101 + Vorinostat; first compound 0.01 µM,0.759
same,relative viability,CUDC-101 + Vorinostat; first compound 0.03162 µM,0.741
same,relative viability,CUDC-101 + Vorinostat; first compound 0.1 µM,0.73
same,relative viability,CUDC-101 + Vorinostat; first compound 0.3162 µM,0.67
same,relative viability,CUDC-101 + Vorinostat; first compound 1 µM,0.637
same,relative viability,[1]; first compound 0.005 µM,0.943
same,relative viability,[1]; first compound 0.01581 µM,1.07
same,relative viability,[1]; first compound 0.05 µM,0.996
same,relative viability,[1]; first compound 0.1581 µM,1.13
same,relative viability,[1]; first compound 0.5 µM,0.884
same,relative viability,[2]; first compound 0.005 µM,0.392
same,relative viability,[2]; first compound 0.01581 µM,0.35
same,relative viability,[2]; first compound 0.05 µM,0.379
same,relative viability,[2]; first compound 0.1581 µM,0.576
same,relative viability,[2]; first compound 0.5 µM,0.384
NCI-H838,relative viability,CUDC-101 + Bortezomib; first compound 0.01 µM,0.872
same,relative viability,CUDC-101 + Bortezomib; first compound 0.03162 µM,0.728
same,relative viability,CUDC-101 + Bortezomib; first compound 0.1 µM,0.879
same,relative viability,CUDC-101 + Bortezomib; first compound 0.3162 µM,1.25
same,relative viability,CUDC-101 + Bortezomib; first compound 1 µM,0.533
same,relative viability,CUDC-101 + Vorinostat; first compound 0.01 µM,0.719
same,relative viability,CUDC-101 + Vorinostat; first compound 0.03162 µM,0.741
same,relative viability,CUDC-101 + Vorinostat; first compound 0.1 µM,0.708
same,relative viability,CUDC-101 + Vorinostat; first compound 0.3162 µM,0.555
same,relative viability,CUDC-101 + Vorinostat; first compound 1 µM,0.372
same,relative viability,[1]; first compound 0.005 µM,0.641
same,relative viability,[1]; first compound 0.01581 µM,0.834
same,relative viability,[1]; first compound 0.05 µM,0.841
same,relative viability,[1]; first compound 0.1581 µM,1.05
same,relative viability,[1]; first compound 0.5 µM,0.752
same,relative viability,[2]; first compound 0.005 µM,0.463
same,relative viability,[2]; first compound 0.01581 µM,0.413
same,relative viability,[2]; first compound 0.05 µM,0.439
same,relative viability,[2]; first compound 0.1581 µM,0.612
same,relative viability,[2]; first compound 0.5 µM,0.391

# Reference: the supplement of paper PMC10307832
